# Patent US8986696B2, “Trans-capsular administration of p38 map kinase inhibitors into orthopedic joints” (DePuy Mitek, Inc., priority 2007, dated 2015)
# “Also recorded” adds a separate entry of the source.
# What was measured:
# [1] = tested on: cytokine-stimulated GAG release, human ARC tissues; experiment: human ARC tissues: GAG degradation; type: cell-based
# Protocol: (§1) Glycosaminoglycan (GAG) levels in the culture media were determined by measuring the amount of polyanionic material reacting with 1,9-dimethylmethylene blue (DME) as detected by absorbance at 525 nm, using shark chondroitin sulfate as a standard. The DME blue dye-binding solution was prepared by dissolving 16 mg of DME blue in a solution containing 0.304% glycine, 0.23% sodium chloride (NaCl), 9.5 mM hydrochloric acid (HCl), pH=3.0 with absorbance at 525 equal to 0.31. Proteoglycans and proteoglycan metabolites in chondrocyte pellet were released by digesting the pellet with 125 μg/ml of papain in 0.1 M PBS, pH 6.0, 5 mM cysteine, 5 mM ethylene-diamine-tetra-acetic acid disodium salt (Na2EDTA) at 50° C. for overnight. Results are reported as either micrograms of GAG per milliliter or percent of total GAG released into culture medium.
# (§2) ® infliximab is a monoclonal antibody against human TNFα. To test whether […]® could modulate cytokine-stimulated responses in chondrocytes, human chondrocyte pellets were first tested for an optimal concentration for cytokine stimulation. Human ARC (i.e., ARCs generated using human chondrocytes) tissues were treated with various concentrations of either TNF or IL-1 for four and five days. The culture media was collected for measurement of GAG content as described above. Other assays were performed as described above. Cytokine dosage at 5 ng/ml and treatment for five days gave a reasonable treatment window, yet was not too challenging for compound efficacy (FIG. 4).
# (§3) Human ARC tissues were then treated with various concentrations of […]® in the presence or absence of either 10 ng/ml of TNFα or 5 ng/ml of IL-1β for four or five days.
# (§4) The efficacy of a monoclonal antibody (mAb) against human IL-6 in inhibition of proteoglycan degradation, NO production and PGE2 synthesis on human ARC tissues stimulated with IL-6 was also tested. Human ARC tissue were treated with 12.5, 25 and 250 ng/ml of IL-6 mAb diluted into chondrocyte stimulation medium. […]
# [2] = tested on: cytokine-stimulated NO production, human ARC tissues; experiment: human ARC tissues: NO production; type: cell-based
# Protocol: Nitrate/Nitrite levels were measured using the Griess reaction (Green L. C. et al., “Analysis of Nitrate, Nitrite, and [15N]nitrate in Biological Fluids,” Anal. Biochem. 126: 131-138 (1982)) with aNitrate/Nitrite Colorimetric Assay Kit (Cayman Chemicals), the contents of which are incorporated herein by reference. The assay involved a simple two-step process. The first step involved conversion of nitrate in 50 μl of culture medium to nitrite utilizing nitrate reductase in a reaction volume of 100 μl at room temperature for two hours. The second step involved the addition of 50 μl of both Griess Reagent 1 and 2, which converted nitrite into a deep purple azo compound in ten minutes. Photometric measurement of the absorbance at 540 or 550 nm due to this azo chromophore accurately determined nitrite concentration. This assay kit cannot be used for RPMI (Roswell Park Memorial Institute) derived tissue culture medium due to interference with the colorimetric reaction.
# ® infliximab is a monoclonal antibody against human TNFα. To test whether […]® could modulate cytokine-stimulated responses in chondrocytes, human chondrocyte pellets were first tested for an optimal concentration for cytokine stimulation. Human ARC (i.e., ARCs generated using human chondrocytes) tissues were treated with various concentrations of either TNF or IL-1 for four and five days. […]
# [3] = tested on: cytokine-stimulated PGE2 synthesis, human ARC tissues; experiment: human ARC tissues: PGE2 synthesis; type: cell-based; conditions: for PGE2 Inhibition: TNFα stimulated responses
# Protocol: (§5) Prostaglandin E2 (PGE2) was measured with a STAT-Prostaglandin E2 EIA ELISA kit (Cayman Biochemicals). This assay is based on the competition between PGE2 from 50 μl samples and a PGE2-alkaline phosphatase conjugate for a limited amount of PGE2 monoclonal antibody in a reaction volume of 150 μl at room temperature for one hour. The antibody-PGE2 complex bound to a goat polyclonal anti-mouse IgG that had been previously attached to the well. After washing to remove any unbound reagents, para-nitrophenyl phosphate (pNPP) was added to the well. The product of this enzymatic reaction absorbs strongly at 412 nm. Because of the large range in response to IL-1β and other cytokines, PGE2 values were converted to log scale prior to doing t-tests.
# as §2, §3, §4
# human cancer cell lines = experiment: cell proliferation in culture; type: cell-based; conditions: in 9 cell lines, read-out: inhibits cell proliferation in culture IC50
# [4] = tested on: human tumor xenograft models; experiment: human tumor xenograft models; conditions: in vivo
# [5] = tested on: IL-1β-stimulated GAG release, bovine chondrocyte pellets / ARC tissues; experiment: chondrocyte pellet culture model: GAG degradation; type: cell-based; conditions: ARC, 7.5 ng/ml IL-1, five days; JNJ 7706621 at 5 μM
# Text: (§6) Calf articular cartilage was obtained from the knee joints of eight to twelve month old animals and was processed within twenty-four hours after sacrifice. After removal of muscle and ligament, the cartilage was kept moist using phosphate buffer solution (PBS) to prevent tissue dehydration, and was aseptically peeled off from subchondral bone with a scalpel, and the cartilage pieces were further minced into smaller pieces (˜0.3-0.5×˜0.2-0.5 cm cubes). […] Chondrocytes were then enzymatically isolated from the tissue by incubation for overnight at 37° C. with gentle agitation in 0.2% collagenase in Dulbecco's modified eagle media (DMEM). After removal of tissue debris by filtration through cell strainer and the residual collagenase by 3× wash in PBS, cells were finally resuspended at a density of 2.5×10^6 cells/ml in chondrocyte medium. A 1 ml aliquot of the cell suspension was dispensed into either a 15 ml Falcon centrifuge tube or a 96 deep-well plate and centrifuged at 2000×g for five minutes. The chondrocyte pellets were incubated at 37° C. in a humidified atmosphere of 5% CO2 for two to three weeks with a medium change every other day.
# (§7) As an alternative to using calf articular cartilage, a commercial Alginate Recovered Chondrocytes (ARC) system was also used (Articular Engineering, LLC (Northbrook, Ill.)). Use of the commercial system cut down on labor and time in producing chondrocyte pellet. This system produced cartilaginous tissue in vitro using bovine chondrocytes. The first step consisted of culturing chondrocytes in alginate under conditions optimal for the formation of a cell-associated matrix (CM). The second step allowed these cells with their CM, after recovery, to rapidly form and become integrated into a solid mass of cartilage on a porous insert within two weeks. This tissue is rich in cells surrounded by a cell-associated matrix that is degraded rapidly when the cells are exposed to IL-1. ARC tissues in 3 mm punches at delivery were first dispensed into a 96 deep-well plate, one punch per well, for compound treatment. The subsequent procedures were the same as those used for the chondrocyte pellets.
# (§8) Chondrocyte pellets were washed once with 1 ml of Chondrocyte Stimulation Medium and equilibrated in the same medium at room temperature for fifteen to thirty minutes. Compounds were dissolved in H2O, Ethanol or dimethyl sulfoxide (DMSO) (10^−2 M) according to suppliers' instructions and further diluted with Chondrocyte Stimulation Medium to the required concentrations. DMSO concentrations in the culture media should not exceed 1%; this concentration of DMSO has no effect on cartilage proteoglycan metabolism in response to cytokines.
# […] At the end of the incubation, media and pellets were harvested and frozen for further analysis. Pellets were also fixed as needed in 4% (w/v) paraformaldehyde in PBS for histology analysis.
# as §1
# [6] = tested on: IL-1β-stimulated NO production, bovine chondrocyte pellets / ARC tissues; experiment: chondrocyte pellet culture model: total nitrite/nitrate (NO); type: cell-based; conditions: ARC, 7.5 ng/ml IL-1, five days; JNJ 7706621 at 5 μM
# Text: as §6, §7, §8
# (§9) The pellets were first treated with compounds at desired concentrations at 37° C. for one hour and then incubated for three to five days in the absence or presence of 10 ng/ml of IL-1β. At the end of the incubation, media and pellets were harvested and frozen for further analysis. Pellets were also fixed as needed in 4% (w/v) paraformaldehyde in PBS for histology analysis.
# Nitrate/Nitrite levels were measured using the Griess reaction (Green L. C. et al., “Analysis of Nitrate, Nitrite, and [15N]nitrate in Biological Fluids,” Anal. Biochem. 126: 131-138 (1982)) with aNitrate/Nitrite Colorimetric Assay Kit (Cayman Chemicals), the contents of which are incorporated herein by reference. The assay involved a simple two-step process. The first step involved conversion of nitrate in 50 μl of culture medium to nitrite utilizing nitrate reductase in a reaction volume of 100 μl at room temperature for two hours. The second step involved the addition of 50 μl of both Griess Reagent 1 and 2, which converted nitrite into a deep purple azo compound in ten minutes. Photometric measurement of the absorbance at 540 or 550 nm due to this azo chromophore accurately determined nitrite concentration. […]
# [7] = tested on: IL-1β-stimulated PGE2 synthesis, bovine chondrocyte pellets / ARC tissues; experiment: chondrocyte pellet culture model: PGE2; type: cell-based
# Text: as §6, §7, §8, §9, §5
# chondrocytes = type: cell-based
# Text: as §6, §7, §8, §9
# The LDH activity was determined colorimetrically in an enzymatic test based on the conversion of lactic acid to pyruvate in the presence of chromagenic substrate tetrazolium salt INT that was reduced to formazan.
# [8] = tested on: injured cartilage explants, PGE2 synthesis; experiment: drop tower design model: PGE2 synthesis; type: cell-based, bovine; conditions: cocktail of cytokines
# Text: The device comprises a vertical rail that guides a sliding weight from 0.1 kg to 3 kg directly onto a force transducer which is situated at the bottom of the device. A sphere-shaped 2 mm indenter resting on a specimen is located at the bottom of the vertical rail. The indenter is held by a stop screw. The specimen is rigidly attached to a tissue holder underneath the indenter, to avoid side movements, the specimen is rigidly attached to the tissue holder. In this manner, the force transducer transduces a force indirectly onto the specimen. Adjusting the weight of a mass and height from which the mass drops varies the magnitude of the intended impact. For example, a weight mass (e.g., […]) held by a weight holder can be released from a height of e.g., 36 cm and dropped onto the force transducer. […]
# In the first method, bovine or human PBMCs were freshly prepared using Ficoll gradient by Lampire Biological Laboratories, Inc. PBMCs in RPMI w/10% FCS at delivery were spun down at 1500 rpm for twenty minutes and the cell pellet was washed twice with 1×PBS to wash off the residual Ficoll. […] Each conditioned medium was assessed for levels of pro-inflammatory cytokines to ensure their secretion from PBMC. […]
# PGE2 was measured with STAT-Prostaglandin E2 EIA ELISA kit (Cayman Biochemicals), as described in Example III above. […]
# [9] = at 1 ng/ml, TNFα stimulated responses
compound,measurement,setting,value
REMICADE®: monoclonal antibody against human TNFα,"IL-1β stimulated responses (PGE2, NO, GAG; words)",[1]; 5 ng/ml IL-1β,little effect
same,TNFα-induced GAG release,[1]; 10 ng/ml TNFα,strongly inhibited
same,"GAG Release, inhibition",[1]; [9],100% at 1 ng/ml
same,TNFα-induced NO production,[2]; 10 ng/ml TNFα,strongly inhibited
same,NO Inhibition,[2]; [9],100% at
same,TNFα-induced PGE2 synthesis,[3]; 10 ng/ml TNFα,strongly inhibited
same,PGE2 Inhibition,[3]; at 1 ng/ml,50% at 1 ng/ml
same,PGE2 Inhibition,[3]; at 10 ng/ml,100% at
"Nc1nc(Nc2ccc(S(N)(=O)=O)cc2)nn1C(=O)c1c(F)cccc1F [JNJ 7706621, 4-[5-Amino-1-(2,6-difluoro-benzoyl)-1H-[1,2,4]triazol-3-ylamino]-benzenesulfonamide]",IC50,human cancer cell lines,337 ± 123 nM
same,antitumor activity in human tumor xenograft models,[4],single agent antitumor activity
same,GAG Release,[5],completely blocked
same,NO production,[6],completely blocked
same,PGE2 synthesis,"[7]; ARC, 7.5 ng/ml IL-1, five days, JNJ 7706621 at 5 μM",little effect
same,PGE2 Inhibition,[7]; Pellet Assay,No effect
same,"cytotoxicity to chondrocytes (LDH, words)",chondrocytes,little toxicity
CNC(=O)[C@H](Cc1ccccc1)NC(=O)[C@H](CC(C)C)[C@H](CSc1cccs1)C(=O)NO [Batimastat],"PGE2 synthesis, inhibition",[8],did not inhibit; also recorded: No effect
